Source: the supplement of paper PMC10307832

Key:
Experiment in all cases: relative viability (nuclei count vs DMSO), 5 days (fraction); higher = more cells survive
Quizartinib + Linsitinib = compound: CC(C)(C)c1cc(NC(=O)Nc2ccc(-c3cn4c(n3)sc3cc(OCCN5CCOCC5)ccc34)cc2)no1 [Quizartinib] + C[C@]1(O)C[C@@H](c2nc(-c3ccc4ccc(-c5ccccc5)nc4c3)c3c(N)nccn32)C1 [Linsitinib] (partner 1 µM)
In short: (§1)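 Relative viability was taken as the ratio of nuclei in treated wells to nuclei in vehicle wells. Lung cancer cell lines in 1536-well plates received compounds by pin tool one day after seeding, either one drug alone or a fixed anchor-drug dose plus five library-drug doses (not always all listed) in √10 steps. Nuclei were counted on 4× images after 5 days of treatment, and values are medians of duplicate plates.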

Quizartinib + Bortezomib = compound: CC(C)(C)c1cc(NC(=O)Nc2ccc(-c3cn4c(n3)sc3cc(OCCN5CCOCC5)ccc34)cc2)no1 [Quizartinib] + CC(C)C[C@H](NC(=O)[C@H](Cc1ccccc1)NC(=O)c1cnccn1)B(O)O [Bortezomib] (partner 0.002 µM)
In short: as §1

YM155 + Palbociclib = compound: COCC[n+]1c2c(n(Cc3cnccn3)c1C)C(=O)c1ccccc1C2=O [YM155] + CC(=O)c1c(C)c2cnc(Nc3ccc(N4CCNCC4)cn3)nc2n(C2CCCC2)c1=O [Palbociclib] (partner 0.5 µM)
In short: as §1

YM155 + Dasatinib = compound: COCC[n+]1c2c(n(Cc3cnccn3)c1C)C(=O)c1ccccc1C2=O [YM155] + Cc1nc(Nc2ncc(C(=O)Nc3c(C)cccc3Cl)s2)cc(N2CCN(CCO)CC2)n1 [Dasatinib] (partner 0.075 µM)
In short: as §1

| Cell Line | relative viability (Quizartinib + Linsitinib; first compound 0.001 µM) | relative viability (Quizartinib + Linsitinib; first compound 0.003162 µM) | relative viability (Quizartinib + Linsitinib; first compound 0.01 µM) | relative viability (Quizartinib + Linsitinib; first compound 0.03162 µM) | relative viability (Quizartinib + Linsitinib; first compound 0.1 µM) | relative viability (Quizartinib + Bortezomib; first compound 0.001 µM) | relative viability (Quizartinib + Bortezomib; first compound 0.003162 µM) | relative viability (Quizartinib + Bortezomib; first compound 0.01 µM) | relative viability (Quizartinib + Bortezomib; first compound 0.03162 µM) | relative viability (Quizartinib + Bortezomib; first compound 0.1 µM) | relative viability (YM155 + Palbociclib; first compound 0.002 µM) | relative viability (YM155 + Palbociclib; first compound 0.006325 µM) | relative viability (YM155 + Palbociclib; first compound 0.02 µM) | relative viability (YM155 + Palbociclib; first compound 0.06325 µM) | relative viability (YM155 + Dasatinib; first compound 0.002 µM) | relative viability (YM155 + Dasatinib; first compound 0.006325 µM) | relative viability (YM155 + Dasatinib; first compound 0.02 µM) | relative viability (YM155 + Dasatinib; first compound 0.06325 µM) |
| --- | --- | --- | --- | --- | --- | --- | --- | --- | --- | --- | --- | --- | --- | --- | --- | --- | --- | --- |
| NCI-H2228 | 0.736 | 0.699 | 0.808 | 0.534 | 0.624 | 1.05 | 0.995 | 0.937 | 0.92 | 1.08 | 0.573 | 0.69 | 0.752 | 0.714 | 0.432 | 0.528 | 0.534 | 0.661 |
| EPLC-272H | 1.01 | 1.38 | 1.32 | 1.32 | 1.14 | 0.778 | 0.836 | 0.818 | 0.69 | 0.75 | 0.314 | 0.27 | 0.35 | 0.327 | 0.358 | 0.371 | 0.396 | 0.365 |
| RERF-LC-KJ | 0.79 | 0.878 | 0.941 | 0.843 | 0.92 | 1.04 | 1.15 | 1.26 | 1.1 | 1.06 | 1.09 | 1.1 | 1.02 | 0.985 | 0.755 | 0.836 | 0.851 | 0.78 |
| NCI-H1793 | 0.833 | 0.896 | 0.843 | 0.885 | 0.829 | – | – | – | – | – | 0.292 | 0.324 | 0.323 | 0.304 | 0.366 | 0.443 | 0.338 | 0.34 |
| NCI-H727 | 0.164 | – | 0.387 | 0.309 | 0.174 | 0.656 | – | 0.955 | 0.767 | 0.833 | 0.639 | 0.694 | 0.615 | 0.705 | 0.359 | 0.5 | 0.389 | 0.352 |
| SK-LU-1 | 0.941 | 1.07 | 1.31 | 1.11 | 0.906 | 0.95 | 1.12 | 1.24 | 0.969 | 1.2 | 0.405 | 0.495 | 0.404 | 0.412 | 0.215 | 0.175 | 0.185 | 0.206 |
| EBC-1 | 0.801 | 0.972 | 0.956 | 0.989 | 0.948 | 0.524 | 0.505 | 0.561 | 0.495 | 0.466 | – | – | – | – | – | – | – | – |
| SK-MES-1 | 1.03 | 1 | 1.14 | 0.975 | 0.996 | – | – | – | – | – | 0.312 | 0.357 | 0.225 | 0.191 | 0.447 | 0.34 | 0.332 | 0.154 |
| LK-2 | 0.479 | 0.617 | 0.621 | 0.523 | 0.521 | – | – | – | – | – | 0.851 | 0.655 | 0.632 | 0.78 | 0.275 | 0.271 | 0.266 | 0.294 |
| NCI-H1944 | 0.865 | 1.16 | 1.12 | 1.39 | 1.24 | – | – | – | – | – | 0.337 | 0.296 | 0.328 | 0.325 | 0.201 | 0.202 | 0.208 | 0.24 |
| IA-LM | 0.518 | 0.657 | 0.652 | 0.724 | 0.679 | 0.774 | 0.738 | 0.885 | 0.812 | 0.736 | – | – | – | – | – | – | – | – |
| HCC-44 | 0.639 | 0.647 | 0.695 | 0.69 | 0.632 | 0.878 | 0.937 | 0.941 | 0.838 | 0.775 | 0.975 | 1.01 | 0.928 | 1 | – | – | – | – |
| NCI-H522 | – | – | – | – | – | – | – | – | – | – | 1.01 | 1.01 | 1.18 | 1.06 | 0.877 | 0.818 | 0.915 | 0.9 |
| A549 | – | 0.49 | 0.61 | 0.611 | 0.787 | – | – | – | – | – | – | – | – | – | – | – | – | – |
| NCI-H1623 | – | – | – | – | – | – | – | – | – | – | – | – | – | – | 0.547 | 0.529 | 0.599 | 0.555 |
| NCI-H1650 | – | – | – | – | – | 0.139 | 0.184 | 0.207 | – | 0.191 | 0.229 | 0.347 | 0.286 | 0.216 | 0.283 | 0.338 | 0.368 | 0.353 |
| NCI-H1563 | 1.01 | 1.04 | 1.17 | – | 0.972 | 0.968 | 0.833 | 0.791 | – | 0.84 | – | – | – | – | 0.382 | 0.541 | 0.453 | 0.475 |
| NCI-H358 | 0.592 | 0.688 | 0.768 | – | 0.698 | – | – | – | – | – | 0.129 | 0.129 | 0.134 | 0.157 | 0.139 | 0.145 | 0.161 | 0.156 |
| NCI-H2170 | – | – | – | – | – | – | – | – | – | – | 0.418 | 0.473 | 0.389 | 0.376 | 0.485 | 0.628 | 0.572 | 0.625 |
| Calu-6 | 0.975 | 0.884 | 0.944 | 0.959 | 0.883 | 0.924 | 0.991 | 1.02 | 0.811 | 1.07 | – | – | – | – | – | – | – | – |
| ChaGo-K-1 | – | – | – | – | – | 0.693 | 1.16 | 1.06 | – | 1.28 | 0.951 | 0.909 | 0.881 | 0.918 | 0.463 | 0.503 | 0.582 | 0.629 |
